Source: ChEMBL document CHEMBL2157914, “Synthesis, anti-inflammatory and antimicrobial evaluation of novel 1-acetyl-3,5-diaryl-4,5-dihydro (1H) pyrazole derivatives bearing urea, thiourea and sulfonamide moieties” (2012)
Values after ≈ are worked out from the molar mass of the structure shown. Active and inactive are the calls of the source. No cut-off for these calls is given here.

Experiments:
Bacillus subtilis = assay: Antibacterial activity against Bacillus subtilis MTCC 441 after 24 hrs by agar well diffusion method; format: functional; conditions: MTCC 441, 24 h
Aspergillus flavus [1] = assay: Antifungal activity against Aspergillus flavus MTCC 277 after 2 to 3 days by agar well diffusion method; format: functional
THP-1 [2] = assay: Antiinflammatory activity in human THP1 cells assessed as inhibition of LPS-stimulated IL-6 production at 10 uM incubated for 30 mins prior to LPS-challenge measured 24 hrs post LPS-challenge by ELISA; format: functional
Candida albicans = assay: Antifungal activity against Candida albicans MTCC 227 after 2 to 3 days by agar well diffusion method; format: functional
THP-1 [3] = assay: Antiinflammatory activity in human THP1 cells assessed as inhibition of LPS-stimulated TNFalpha production at 10 uM incubated for 30 mins prior to LPS-challenge measured 24 hrs post LPS challenge by ELISA; format: functional
Escherichia coli = assay: Antibacterial activity against Escherichia coli MTCC 443 after 24 hrs by agar well diffusion method; format: functional; conditions: MTCC 443, 24 h
Aspergillus niger [4] = assay: Antifungal activity against Aspergillus niger MTCC 281 after 2 to 3 days by agar well diffusion method; format: functional
Staphylococcus aureus = assay: Antibacterial activity against Staphylococcus aureus MTCC 96 after 24 hrs by agar well diffusion method; format: functional; conditions: MTCC 96, 24 h
Fusarium solani [5] = assay: Antifungal activity against Fusarium solani MTCC 350 after 2 to 3 days by agar well diffusion method; format: functional
Salmonella typhimurium = assay: Antibacterial activity against Salmonella typhimurium MTCC 98 after 24 hrs by agar well diffusion method; format: functional, Salmonella enterica subsp. enterica serovar Typhimurium; conditions: Salmonella enterica, MTCC 98, 24 h
Aspergillus niger [6] = assay: Antifungal activity against Aspergillus niger MTCC 281 up to 200 ug/mL after 2 to 3 days by agar well diffusion method; format: functional, organism-based
Aspergillus flavus [7] = assay: Antifungal activity against Aspergillus flavus MTCC 277 up to 200 ug/mL after 2 to 3 days by agar well diffusion method; format: functional, organism-based
Fusarium solani [8] = assay: Antifungal activity against Fusarium solani MTCC 350 up to 200 ug/mL after 2 to 3 days by agar well diffusion method; format: functional, organism-based

Row | SMILES | MIC (Bacillus subtilis) [µg/mL] | MIC (Aspergillus flavus [1]) [µg/mL] | inhibition at 10 µM (THP-1 [2]) [%] | MIC (Candida albicans) [µg/mL] | inhibition at 10 µM (THP-1 [3]) [%] | MIC (Escherichia coli) [µg/mL] | MIC (Aspergillus niger [4]) [µg/mL] | MIC (Staphylococcus aureus) [µg/mL] | MIC (Fusarium solani [5]) [µg/mL] | MIC (Salmonella typhimurium) [µg/mL] | Activity (Aspergillus niger [6]) | Activity (Aspergillus flavus [7]) | Activity (Fusarium solani [8])
1 | COc1ccc(C2=NN(C(C)=O)C(c3ccc(NC(=O)Nc4ccc(C(F)(F)F)cc4Cl)cc3)C2)cc1OC (configuration not stated) | 60 (≈ 107 µM) | 20 (≈ 35.7 µM) | 8 | 55 (≈ 98 µM) | 3 | 45 (≈ 80.2 µM) | 35 (≈ 62.4 µM) | 35 (≈ 62.4 µM) | 20 (≈ 35.7 µM) | 80 (≈ 143 µM) |  |  | 
2 | COc1ccc(C2=NN(C(C)=O)C(c3ccc(NS(=O)(=O)c4ccccc4C#N)cc3)C2)cc1OC (configuration not stated) | 65 (≈ 129 µM) | 70 (≈ 139 µM) | 31 | 65 (≈ 129 µM) | 10 | 90 (≈ 178 µM) | 40 (≈ 79.3 µM) | 80 (≈ 159 µM) | 80 (≈ 159 µM) | 90 (≈ 178 µM) |  |  | 
3 | COc1ccc(C2=NN(C(C)=O)C(c3ccc(NS(=O)(=O)c4ccc(Br)cc4)cc3)C2)cc1OC (configuration not stated) | 65 (≈ 116 µM) | 40 (≈ 71.6 µM) | 0 | 25 (≈ 44.8 µM) | 0 | 30 (≈ 53.7 µM) | 15 (≈ 26.9 µM) | 30 (≈ 53.7 µM) | 15 (≈ 26.9 µM) | 30 (≈ 53.7 µM) |  |  | 
4 | COc1ccc(C2=NN(C(C)=O)C(c3ccc(NC(=S)Nc4ccc(C#N)cc4)cc3)C2)cc1OC (configuration not stated) | 35 (≈ 70.1 µM) | 35 (≈ 70.1 µM) | 21 | 55 (≈ 110 µM) | 0 | 30 (≈ 60 µM) | 20 (≈ 40 µM) | 60 (≈ 120 µM) | 20 (≈ 40 µM) | 45 (≈ 90.1 µM) |  |  | 
5 | COc1ccc(C2=NN(C(C)=O)C(c3ccc(NS(=O)(=O)c4ccc(OC(F)(F)F)cc4)cc3)C2)cc1OC (configuration not stated) | 45 (≈ 79.9 µM) | 20 (≈ 35.5 µM) | 30 | 45 (≈ 79.9 µM) | 8 | 15 (≈ 26.6 µM) | 25 (≈ 44.4 µM) | 20 (≈ 35.5 µM) | 35 (≈ 62.1 µM) | 65 (≈ 115 µM) |  |  | 
6 | COc1ccc(C2=NN(C(C)=O)C(c3ccc(NC(=O)Nc4cccc(Cl)c4F)cc3)C2)cc1OC (configuration not stated) | 90 (≈ 176 µM) |  | 76 | 90 (≈ 176 µM) | 61 | 90 (≈ 176 µM) |  | 90 (≈ 176 µM) |  | 90 (≈ 176 µM) | inactive | inactive | inactive
7 | COc1ccc(C2=NN(C(C)=O)C(c3ccc(NC(=O)Nc4ccccc4F)cc3)C2)cc1OC (configuration not stated) | 80 (≈ 168 µM) | 80 (≈ 168 µM) | 93 | 80 (≈ 168 µM) | 85 | 45 (≈ 94.4 µM) | 80 (≈ 168 µM) | 60 (≈ 126 µM) | 90 (≈ 189 µM) | 80 (≈ 168 µM) |  |  | 
8 | COc1ccc(C2=NN(C(C)=O)C(c3ccc(NC(=O)Nc4ccccc4OC(F)(F)F)cc3)C2)cc1OC (configuration not stated) | 40 (≈ 73.7 µM) | 30 (≈ 55.3 µM) | 75 | 40 (≈ 73.7 µM) | 58 | 40 (≈ 73.7 µM) | 75 (≈ 138 µM) | 55 (≈ 101 µM) | 60 (≈ 111 µM) | 60 (≈ 111 µM) |  |  | 
9 | Clc1ccc(COC(Cn2ccnc2)c2ccc(Cl)cc2Cl)c(Cl)c1 (configuration not stated) [MICONAZOLE] |  | 20 (≈ 48.1 µM) |  | 20 (≈ 48.1 µM) |  |  | 15 (≈ 36 µM) |  | 15 (≈ 36 µM) |  |  |  | 
10 | O=C(O)c1cn(C2CC2)c2cc(N3CCNCC3)c(F)cc2c1=O [CIPROFLOXACIN] | 15 (≈ 45.3 µM) |  |  |  |  | 15 (≈ 45.3 µM) |  | 20 (≈ 60.4 µM) |  | 20 (≈ 60.4 µM) |  |  | 
11 | COc1cccc(NC(=S)Nc2ccc(C3CC(c4ccc(OC)c(OC)c4)=NN3C(C)=O)cc2)c1 (configuration not stated) | 90 (≈ 178 µM) | 95 (≈ 188 µM) | 26 | 80 (≈ 159 µM) | 11 | 70 (≈ 139 µM) | 95 (≈ 188 µM) | 55 (≈ 109 µM) |  | 90 (≈ 178 µM) |  |  | 
12 | COc1ccc(C2=NN(C(C)=O)C(c3ccc(NC(=O)Nc4ccc(OC(F)(F)F)cc4)cc3)C2)cc1OC (configuration not stated) | 20 (≈ 36.9 µM) | 20 (≈ 36.9 µM) | 11 | 25 (≈ 46.1 µM) | 8 | 25 (≈ 46.1 µM) | 35 (≈ 64.5 µM) | 30 (≈ 55.3 µM) | 20 (≈ 36.9 µM) | 45 (≈ 82.9 µM) |  |  | 
13 | COc1ccc(C2=NN(C(C)=O)C(c3ccc(NC(=S)Nc4ccccc4F)cc3)C2)cc1OC (configuration not stated) | 80 (≈ 162 µM) | 90 (≈ 183 µM) | 84 | 80 (≈ 162 µM) | 78 | 55 (≈ 112 µM) |  | 80 (≈ 162 µM) | 90 (≈ 183 µM) | 90 (≈ 183 µM) | inactive |  | 
14 | COc1ccc(C2=NN(C(C)=O)C(c3ccc(NC(=O)Nc4ccccc4C(F)(F)F)cc3)C2)cc1OC (configuration not stated) | 90 (≈ 171 µM) | 80 (≈ 152 µM) | 80 | 80 (≈ 152 µM) | 61 | 60 (≈ 114 µM) | 90 (≈ 171 µM) | 75 (≈ 142 µM) | 75 (≈ 142 µM) | 90 (≈ 171 µM) |  |  | 
15 | COc1ccc(C2=NN(C(C)=O)C(c3ccc(NC(=O)Nc4ccc(C(C)C)cc4)cc3)C2)cc1OC (configuration not stated) | 40 (≈ 79.9 µM) | 20 (≈ 40 µM) | 16 | 20 (≈ 40 µM) | 11 | 30 (≈ 59.9 µM) | 40 (≈ 79.9 µM) | 30 (≈ 59.9 µM) | 20 (≈ 40 µM) | 55 (≈ 110 µM) |  |  | 
16 | COc1ccc(C2=NN(C(C)=O)C(c3ccc([N+](=O)[O-])cc3)C2)cc1OC (configuration not stated) | 50 (≈ 135 µM) | 90 (≈ 244 µM) | 0 | 90 (≈ 244 µM) | 0 | 65 (≈ 176 µM) | 90 (≈ 244 µM) | 90 (≈ 244 µM) |  | 90 (≈ 244 µM) |  |  | inactive
17 | COc1ccc(C2=NN(C(C)=O)C(c3ccc(NS(=O)(=O)c4cc(F)ccc4C)cc3)C2)cc1OC (configuration not stated) | 20 (≈ 39.1 µM) | 20 (≈ 39.1 µM) | 0 | 30 (≈ 58.6 µM) | 0 | 20 (≈ 39.1 µM) | 60 (≈ 117 µM) | 55 (≈ 108 µM) | 20 (≈ 39.1 µM) | 40 (≈ 78.2 µM) |  |  | 
18 | COc1ccc(C2=NN(C(C)=O)C(c3ccc(NS(=O)(=O)c4ccc(C)cc4)cc3)C2)cc1OC (configuration not stated) | 90 (≈ 182 µM) | 90 (≈ 182 µM) | 0 | 70 (≈ 142 µM) | 0 | 75 (≈ 152 µM) | 90 (≈ 182 µM) | 90 (≈ 182 µM) | 65 (≈ 132 µM) | 90 (≈ 182 µM) |  |  | 
19 | COc1ccc(NC(=S)Nc2ccc(C3CC(c4ccc(OC)c(OC)c4)=NN3C(C)=O)cc2)cc1 (configuration not stated) | 65 (≈ 129 µM) | 90 (≈ 178 µM) | 10 | 90 (≈ 178 µM) | 3 | 20 (≈ 39.6 µM) |  | 45 (≈ 89.2 µM) | 90 (≈ 178 µM) | 35 (≈ 69.4 µM) | inactive |  | 
